Drawing on ChEMBL document CHEMBL5120761, “Lanicepines A and B, Sesquiterpenes with Amino Acid-Derived Substituents from the Flowering Aerial Parts of Saussurea laniceps” (J Nat Prod, 2022), this text covers CC50 and IC50 for four molecules.

A word on the CC50: it is the concentration at which the toxic effect on the cells reaches its halfway point. One may read the IC50 as the concentration at which inhibition is half-maximal.

A value given as a limit tells only on which side of the number the result lay.

Data set [1] can be described thus: Cytotoxicity against mouse Microglia cells assessed as reduction in cell viability. Format: toxicity, cell-based.
For data set [2], the system named is Microglia. Briefly: Anti-inflammatory activity against mouse Microglia cells assessed as reduction in LPS-induced IL-1beta production. The data set is classed as functional, cell-based.

On to `C=C1[C@@H]2[C@H]3OC(=O)[C@@H](CNC(=O)[C@H](CO)CN4CCC[C@H]4C(=O)O)[C@@H]3[C@@H](O)CC(=C)[C@@H]2C[C@@H]1O`, for which, in data set [1], the CC50 was more than 100 µM. For the same molecule, the 50% inhibitory concentration (IC50) in data set [2] is 62.6 µM.
`C=C1[C@@H]2[C@H]3OC(=O)[C@@H](CN4C=C(C(N)=O)C[C@@H](CO)C4=O)[C@@H]3[C@@H](O)CC(=C)[C@@H]2C[C@@H]1O`: the CC50 in data set [1] is more than 100 µM. In data set [2], the IC50 is 86.7 µM.
Turning to `C=C1[C@@H]2[C@H]3OC(=O)[C@@H](C)[C@@H]3[C@@H](O[C@@H]3O[C@H](CO)[C@@H](O)[C@H](O)[C@H]3O)CC(=C)[C@@H]2C[C@@H]1O`, the CC50 in data set [1] is more than 100 µM. Further, the IC50 in data set [2] turned out to be 44.5 µM.
With `C=C1[C@@H]2[C@H]3OC(=O)[C@@H](C)[C@@H]3[C@@H](O)CC(=C)[C@@H]2C[C@@H]1O`, the CC50 in data set [1] was more than 100 µM. Besides, the IC50 in data set [2] is 54.2 µM.
